Data on two compounds can be found in ChEMBL document CHEMBL5543126, “Combinatorial Ubiquitination REal-time PROteolysis (CURE-PROs): A Modular Platform for Generating Reversible, Self-Assembling Bifunctional Targeted Degraders” (J Med Chem, 2024).

The term Emax denotes the greatest response seen or fitted, relative to the assay's reference.

Experiment [1] has as its target T1, von Hippel-Lindau disease tumor suppressor/Bromodomain-containing protein 4 (Homo sapiens, UniProt O60885+P40337). The experiment in a line: PROTAC activity at BRD4/VHL in human MCF7 cells assessed as induction of BRD4 degradation by measuring residual activity at 100 nM incubated for 24 hrs in presence of BRD4 based ligand ((4S)-6-(4-chlorophenyl)-4-(2-(ethylamino)-2-oxoethyl)-1-methyl4Hbenzo[f][1,2,4]triazolo [4,3-a][1,4]diazepin-8-yl)boronic acid by Western blot based Combinatorial Ubiquitination Real-time PROteolysis analysis. The experiment is classed as cell-based.

Experiment [2] concerns the target T1, von Hippel-Lindau disease tumor suppressor/Bromodomain-containing protein 4. As to the kind of experiment: PROTAC activity at BRD4/VHL in human MCF7 cells assessed as induction of BRD4 degradation by measuring residual activity at 10 uM incubated for 24 hrs in presence of 100 nM BRD4 based ligand ((4S)-6-(4-chlorophenyl)-4-(2-(ethylamino)-2-oxoethyl)-1-methyl4Hbenzo[f][1,2,4]triazolo [4,3-a][1,4]diazepin-8-yl)boronic acid by Western blot based Combinatorial Ubiquitination Real-time PROteolysis analysis. The experiment is classed as cell-based.

Experiment [3] shares this target. As to the kind of experiment: PROTAC activity at BRD4/VHL in human MCF7 cells assessed as induction of BRD4 degradation by measuring residual activity at 10 uM incubated for 24 hrs in presence of 3 uM BRD4 based ligand ((4S)-6-(4-chlorophenyl)-4-(2-(ethylamino)-2-oxoethyl)-1-methyl4Hbenzo[f][1,2,4]triazolo [4,3-a][1,4]diazepin-8-yl)boronic acid by Western blot based Combinatorial Ubiquitination Real-time PROteolysis analysis. Type of experiment: cell-based. (In western blotting, separated proteins are transferred to a membrane and probed.)

Experiment [4] has the same target. The experiment in a line: PROTAC activity at BRD4/VHL in human MCF7 cells assessed as induction of BRD4 degradation by measuring residual activity at 10 uM incubated for 24 hrs in presence of 300 nM BRD4 based ligand ((4S)-6-(4-chlorophenyl)-4-(2-(ethylamino)-2-oxoethyl)-1-methyl4Hbenzo[f][1,2,4]triazolo [4,3-a][1,4]diazepin-8-yl)boronic acid by Western blot based Combinatorial Ubiquitination Real-time PROteolysis analysis. The experiment is classed as cell-based.

Experiment [5] shares this target. The experiment in a line: PROTAC activity at VHL/BRD4 in HEK293 cells assessed as induction of BRD4 degradation by measuring maximal level of degradation at 10 uM measured every 15 mins for 24 hrs in presence of BRD4 based ligand ((4S)-6-(4-chlorophenyl)-4-(2-(ethylamino)-2-oxoethyl)-1-methyl4Hbenzo[f][1,2,4]triazolo [4,3-a][1,4]diazepin-8-yl)boronic acid by HiBiT based Combinatorial Ubiquitination Real-time PROteolysis analysis. Type of experiment: cell-based. A general note: HiBiT is a short tag that completes a luciferase, so light tracks the accessible tagged protein.

The subject of a further experiment is MV4-11. The experiment in a line: Antitumor activity against human MV4-11 cells xenografted in nude mouse assessed as reduction in BRD4 level in tumor at 10 mg/kg, ip administered for 4 hrs and measured at 9 to 12 hrs in presence of BRD4 based ligand ((4S)-6-(4-chlorophenyl)-4-(2-(ethylamino)-2-oxoethyl)-1-methyl4Hbenzo[f][1,2,4]triazolo [4,3-a][1,4]diazepin-8-yl)boronic acid. The experiment is classed as functional, organism-based. Conditions: time 9-12 hrs.

Experiment [6] deals with T1, von Hippel-Lindau disease tumor suppressor/Bromodomain-containing protein 4. The experiment in a line: PROTAC activity at BRD4/VHL in human MCF7 cells assessed as reduction in BRD4 level incubated for 24 hrs in presence of VHL based ligand ((4S)-6-(4-chlorophenyl)-4-(2-(ethylamino)-2-oxoethyl)-1-methyl4Hbenzo[f][1,2,4]triazolo [4,3-a][1,4]diazepin-8-yl)boronic acid by Western blot based Combinatorial Ubiquitination Real-time PROteolysis analysis. Type of experiment: cell-based.

The target is the same in experiment [7]. The experiment in a line: PROTAC activity at BRD4/VHL in human MCF7 cells assessed as induction of BRD4 degradation by measuring residual activity at 10 uM incubated for 24 hrs in presence of BRD4 based ligand ((4S)-6-(4-chlorophenyl)-4-(2-(ethylamino)-2-oxoethyl)-1-methyl4Hbenzo[f][1,2,4]triazolo [4,3-a][1,4]diazepin-8-yl)boronic acid by Western blot based Combinatorial Ubiquitination Real-time PROteolysis analysis. The experiment is classed as cell-based.

The target is the same in experiment [8]. As to the kind of experiment: PROTAC activity at BRD4/VHL in human MCF7 cells assessed as induction of BRD4 degradation by measuring residual activity at 3 uM incubated for 24 hrs in presence of 100 nM BRD4 based ligand ((4S)-6-(4-chlorophenyl)-4-(2-(ethylamino)-2-oxoethyl)-1-methyl4Hbenzo[f][1,2,4]triazolo [4,3-a][1,4]diazepin-8-yl)boronic acid by Western blot based Combinatorial Ubiquitination Real-time PROteolysis analysis. The experiment is classed as cell-based.

Experiment [9] shares this target. The experiment in a line: PROTAC activity at BRD4/VHL in human MCF7 cells assessed as induction of BRD4 degradation by measuring residual activity at 1 uM incubated for 24 hrs in presence of 100 nM VHL based ligand (2S,4R)-1-((S)-2-(2,3-dihydroxybenzamido)-3,3-dimethylbutanoyl)-4-hydroxy-N-(4-(4-methylthiazol-5-yl)benzyl)pyrrolidine-2-carboxamide by Western blot based Combinatorial Ubiquitination Real-time PROteolysis analysis. The experiment is classed as cell-based.

Experiment [10] has the same target. The experiment in a line: PROTAC activity at BRD4/VHL in human MCF7 cells assessed as induction of BRD4 degradation by measuring residual activity at 3 uM incubated for 24 hrs in presence of 3 uM VHL based ligand (2S,4R)-1-((S)-2-(2,3-dihydroxybenzamido)-3,3-dimethylbutanoyl)-4-hydroxy-N-(4-(4-methylthiazol-5-yl)benzyl)pyrrolidine-2-carboxamide by Western blot based Combinatorial Ubiquitination Real-time PROteolysis analysis. The experiment is classed as cell-based.

Experiment [11] has the same target. The experiment in a line: PROTAC activity at BRD4/VHL in human MCF7 cells assessed as induction of BRD4 degradation by measuring residual activity at 10 uM incubated for 24 hrs in presence of 300 nM VHL based ligand (2S,4R)-1-((S)-2-(2,3-dihydroxybenzamido)-3,3-dimethylbutanoyl)-4-hydroxy-N-(4-(4-methylthiazol-5-yl)benzyl)pyrrolidine-2-carboxamide by Western blot based Combinatorial Ubiquitination Real-time PROteolysis analysis. Type of experiment: cell-based.

Experiment [12] shares this target. The experiment in a line: PROTAC activity at BRD4/VHL in human MCF7 cells assessed as induction of BRD4 degradation by measuring residual activity at 3 uM incubated for 24 hrs in presence of 100 nM VHL based ligand (2S,4R)-1-((S)-2-(2,3-dihydroxybenzamido)-3,3-dimethylbutanoyl)-4-hydroxy-N-(4-(4-methylthiazol-5-yl)benzyl)pyrrolidine-2-carboxamide by Western blot based Combinatorial Ubiquitination Real-time PROteolysis analysis. Type of experiment: cell-based.

Experiment [13] shares this target. The experiment in a line: PROTAC activity at BRD4/VHL in human MCF7 cells assessed as induction of BRD4 degradation by measuring residual activity at 1 uM incubated for 24 hrs in presence of 300 nM VHL based ligand (2S,4R)-1-((S)-2-(2,3-dihydroxybenzamido)-3,3-dimethylbutanoyl)-4-hydroxy-N-(4-(4-methylthiazol-5-yl)benzyl)pyrrolidine-2-carboxamide by Western blot based Combinatorial Ubiquitination Real-time PROteolysis analysis. Type of experiment: cell-based.

Experiment [14] shares this target. The experiment in a line: PROTAC activity at BRD4/VHL in human MCF7 cells assessed as induction of BRD4 degradation by measuring residual activity at 10 uM incubated for 24 hrs in presence of 3 uM VHL based ligand (2S,4R)-1-((S)-2-(2,3-dihydroxybenzamido)-3,3-dimethylbutanoyl)-4-hydroxy-N-(4-(4-methylthiazol-5-yl)benzyl)pyrrolidine-2-carboxamide by Western blot based Combinatorial Ubiquitination Real-time PROteolysis analysis. Type of experiment: cell-based.

Calls of active or inactive are those of the source. No cut-off for these calls is given here.

T1 sequence (P40337 whole entry, looked up, other chains not shown): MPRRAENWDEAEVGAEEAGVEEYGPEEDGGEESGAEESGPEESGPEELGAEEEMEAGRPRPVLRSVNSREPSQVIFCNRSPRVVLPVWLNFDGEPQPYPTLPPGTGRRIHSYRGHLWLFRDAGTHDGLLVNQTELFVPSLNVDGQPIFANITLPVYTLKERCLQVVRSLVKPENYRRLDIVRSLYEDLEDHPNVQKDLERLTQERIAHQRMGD

With `Cc1ncsc1-c1ccc(CNC(=O)[C@@H]2C[C@@H](O)CN2C(=O)[C@@H](NC(=O)c2cccc(O)c2O)C(C)(C)C)cc1`, the Activity in experiment [1] was determined as 89%; in experiment [2], 55%; in experiment [3], 7%; in [4] it was 48%; in experiment [7] it was 95%; in experiment [8], 51%. In experiment [5], the Emax came to 96%. Besides, the result (in the experiment with MV4-11; in experiment [6]) was Active. Besides, in experiment [6], the DC50 was determined as 358 nM.
As to `CCNC(=O)C[C@@H]1N=C(c2ccc(Cl)cc2)c2cc(B(O)O)ccc2-n2c(C)nnc21`, the Activity is 56% in [9]; 16% in [10]; 48% in [11]; 51% in experiment [12]; 48% in [13]; 7% in experiment [14].
